Experimental data published in patent US20260257987A1, “COMPOUNDS AND METHOD FOR UPREGULATION OF P53 THROUGH INDUCTION OF MDM2 DEGRADATION” (Georgia State University Research Foundation, Inc., priority 2022, published 2026).

Key:
[1] = tested on: RS4;11 cells (wild-type p53); assay: Cytotoxicity test of BW-AQ-365 (CCK-8) in RS4;11 cells; type: cell-based; conditions: for IC50: Homo sapiens, RS4
Description: Cell viability was assessed by using Cell Counting Kit-8 (CCK-8, Dojindo, Japan). RS4;11 cells (wild-type p53) were cultured in RPMI-1640 medium (Corning, USA). The culture mediums were supplemented with 10% fetal bovine serum (Corning, USA) and 100 unit/ml penicillin, and […] streptomycin. […] Compounds were dissolved in DMSO (molecular biology grade, Sigma-Aldrich, USA) to make 10 mM stock solutions, which were serially diluted with the culture medium to various concentrations (final DMSO concentration=0.5%). A culture medium (50 μL) containing BW-AQ-365 was added directly to the cell suspension in each well immediately after seeding. After incubation for 24-72 h at 37° C. in a humidified atmosphere with 5% CO2, 10 μL of CCK-8 solution was added to each well, and the plate was incubated for an additional 2-4 h at 37° C. before measuring the optical density at 450 nm with a microplate reader (PerkinElmer Victor 2, USA). The cell viability of each well was calculated as the percentage of the untreated control according to the manufacturer's manual. All tests were performed in triplicates, and IC50 values were determined by non-linear regression using GraphPad Prism 9.0.

[2] = tested on: EU-1 (in-house cell line); assay: Cytotoxicity test of BW-AQ-365 (CCK-8) in EU-1 cells; type: cell-based; conditions: EU-1, 25000 cells/well, 24 h
[3] = tested on: MDM2 level in RS4;11 cells; assay: Preliminary study of MDM2 level in RS4;11 cells; type: cell-based
[4] = Thiol (NAC) reactivity study by HPLC; type: physicochemical
Description: HPLC was performed on Shimadzu LC-20AT HPLC system. Condition: mobile phase A: water with 0.05% TFA; B: acetonitrile with 0.05% TFA; gradient: 5-95% B, 0-10 min; […]; 5% B 12.1-15 min. Column: C18, 3.5 μm, 4.6×150 mm; UV detector monitored at 254 nm. For the thiol reactivity assay, a 0.3 mM solution of AQ-analogs was prepared in 0.5 mL PBS: MeOH (80:20) and warmed at 37° C. Next, 25 μL of NAC (from 30 mM stock solution in PBS) was added to the above solution. The resultant solution had final concentrations of 0.3 mM AQ-analogs and 1.5 mM NAC. 20 μL of the reaction mixture was injected into the HPLC at the designated time intervals. The area percentage values were determined via the integration of the area under the curve (AUC) of the chromatogram.

**Q.** Which IC50 ([1]; RS4-11, 48 h, 11, 10000 cells/well, 48 h) does the source give for `CC(=O)CCCOc1cccc2c1C(=O)c1c(OCCCC(C)=O)cc(NC(=O)CN=[N+]=[N-])cc1C2=O` [BW-AQ-365, 2-azido-N-(9,10-dioxo-4,5-bis ((4-oxopentyl)oxy)-9,10-dihydroanthracen-2-yl)acetamide] here?
**A.** 190 ± 10 nM

**Q.** What about the IC50 ([1]; RS4-11, 48 h, 11, 25000 cells/well, 48 h) of the same compound?
**A.** 610 ± 30 nM

**Q.** What about the IC50 ([1]; RS4-11, 72 h, 11, 25000 cells/well, 72 h) of the same compound?
**A.** 5500 ± 320 nM

**Q.** And the “anticancer activity in RS4;11 cells compared with BW-AQ-295” value ([1]; RS4;11 cells)?
**A.** more potent than BW-AQ-295

**Q.** What about the IC50 [2] of the same compound?
**A.** 1550 ± 440 nM

**Q.** What about the “MDM2 level in RS4;11 cells” value [3] of the same compound?
**A.** dose-dependently decrease MDM2 level

**Q.** What about the “reactivity towards thiol, in words” value [4] of the same compound?
**A.** less reactivity towards thiol
